The target of one series is T1, ALK (Homo sapiens, UniProt Q9UM73).
T1 construct: The plasmid pCDNA3.1_8×His-tev-ALK (kinase domain, 1068–1410) was constructed; 8xHis (N); TEV site (N); made in house; host or cells: Expi293 cells (transient transfection)
In words: ATP hydrolysis assay (Kinase-Glo) on ALK. It is filed as biochemical. The settings on record: for LogIC50 (best-fit value): log of nM. The procedure: The ATP hydrolysis assays were based on Kinase-Glo luminescent Kit (Promega). The experiment was carried out in Corning 384-well white flat bottom microplates. The buffer in the reaction contains 25 mM Hepes pH 7.4, 140 mM NaCl, 40 mM MgCl2, 30 mM KCl, 1 mM TCEP, 0.1 mg·mL^−1 BSA, and 0.004% Tween-20. The compounds were diluted to different concentrations with a 5-fold gradient.
For ALK assays, DMSO was added into negative control wells. 100 nM ALK in 2.5 μL Hepes buffer was mixed with compounds and incubated for 10 min. Then 5 μL substrate (2 μM ATP) was added to start the reaction at 37 °C and incubated for 6 h.
When the reaction reaches the planned time, 10 μL diluted Kinase-Glo reagent (1/50 diluted with a buffer containing 50 mM Tris pH 7.5 and 5% glycerol) was added and incubated for 15 min. Luminescence was measured on the Magellan plate reader (Tecan) and nonlinear regression was performed with Prism (GraphPad).
Background: Kinase-Glo reads ATP consumption through a luciferase reaction.

The next series relates to HepG2 cells. In words: Cytotoxicity assay (CCK-8). The settings on record: HepG2, 72 h. It is filed as cell-based, human. The method, then: (§1) HepG2 cells (National Collection of Authenticated Cell Cultures) were cultured in Minimum Essential Medium (Gibco) supplemented with 10% of fetal bovine serum, 100 U·mL^−1 penicillin, 100 U·mL^−1 streptomycin (Gibco), 2 mM L-Glutamine (Gibco), 1× NEAA (Gibco) and 1 mM Sodium Pyruvate (Gibco). The cells were hemi-depleted each week with fresh medium and maintained at 1 ~ 2 × 10^6 cells/mL in 6-cm dishes at 37 °C and 5% CO2. Tested with MycoBlue Mycoplasma Detector D101 (Vazyme), the cells were free from mycoplasma contamination.
(§2) Cell viability was analyzed by Cell Counting Kit-8 (CCK8, ApexBio) according to the manufacturer’s protocols. Cells were seeded and cultured at a density of 2.5 × 10^3 cells per well in 100 μL medium in 96-well microplates (Corning). Then, the cells were treated with different concentrations of compound (0, 1 μM, 3 μM, 10 μM, 100 μM, 300 μM). […] After treatment for 72 h, 10 μL of CCK-8 reagent was added to each well and then cultured for 4 h. All experiments were performed in pentaplicate. The absorbance was analyzed at 450 nm using a microplate reader (Tecan) using medium without cells as blanks. Data was processed using GraphPad Prism 9.

Series [1] is described as follows: Cytotoxicity assay (CCK-8). It is filed as cell-based, human. The settings on record: human, HepG2 cells; HepG2, 72 h. The procedure: as §1, §2
The mark [2] stands for this setting: ALK, source data, read-out: IC50 (best-fit value).

Where two headings read alike, the source gives them in different places.

T1 sequence (Q9UM73 1068-1410): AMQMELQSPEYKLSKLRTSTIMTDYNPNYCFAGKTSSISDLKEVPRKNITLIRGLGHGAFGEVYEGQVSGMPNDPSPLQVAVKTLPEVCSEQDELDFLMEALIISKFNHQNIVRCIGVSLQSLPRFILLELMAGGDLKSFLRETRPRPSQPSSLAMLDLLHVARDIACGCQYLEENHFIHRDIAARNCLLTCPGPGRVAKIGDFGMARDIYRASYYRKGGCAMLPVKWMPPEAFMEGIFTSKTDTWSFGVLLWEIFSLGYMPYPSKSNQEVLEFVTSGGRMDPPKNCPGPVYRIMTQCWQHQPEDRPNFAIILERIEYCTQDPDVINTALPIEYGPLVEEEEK

What is called IC50 is the midpoint of a concentration-inhibition curve. Consider `COc1ccc(OC)c(Nc2ncnc(Nc3ccccc3S(=O)(=O)C(C)C)n2)c1` [Compound 36], for which, on ALK (ALK), the “HillSlope (best-fit value)” value is 0.6864 and the “LogIC50 (best-fit value)” value amounted to 4.281. On ALK (setting [2]), the IC50 stood at 19.1 µM. The 50% inhibitory concentration (IC50) on ALK (read-out: IC50 against ALK) is over 19.1 µM. Moreover, the “cytotoxicity to HepG2” value in the series with HepG2 cells is on record as “no significant toxicity”.

Broadly, the CC50 is the concentration giving 50% cytotoxicity. Take `COc1ccccc1Nc1ncnc(Nc2ccccc2S(=O)(=O)C(C)C)n1` [Compound 38]: at ALK (ALK), the “HillSlope (best-fit value)” value stood at 1.505 and the “LogIC50 (best-fit value)” value is 2.726. In addition, on ALK (setting [2]), the IC50 is 0.532 µM. Also, the IC50 at ALK (read-out: IC50 against ALK) turned out to be 0.532 µM. The molecule further came in with a 50% cytotoxic concentration (CC50) at 72 h in series [1] of 7.7 µM.

The values are drawn from article PMC11189516, “Structure-guided conversion from an anaplastic lymphoma kinase inhibitor into Plasmodium lysyl-tRNA synthetase selective inhibitors” (Communications Biology, 2024).
